The record followed here is patent publication EP1247448A2 (priority 1998, dated 1999).

Structures are written as SMILES. Values joined by “and” are separate entries in the source; they are usually repeats but may differ in a detail not shown here. Equal entries are not always repeated. Where two headings read alike, the source gives them in different places. Bounds are passed on as bounds.

In test [1] the test system is tomato late blight (TLB), Phytophthora infestans. Type of test: in vivo. The following applies: for TLB obs. % Control: Table 3a.
The test system of test [2] is Cucumber Downy Mildew. Kind of test: Cucumber downy mildew control on cucumber plants (Example 4). It is filed as in vivo, Pseudoperonospora cubensis. The note with it: Table 4b.
Test [3] deals with Tomato Late Blight. Type of test: in vivo, Phytophthora infestans. The following applies: Table 4a.
In test [4] the test system is Cucumber Downy Mildew. More on the design: species or system Pseudoperonospora cubensis. The following applies: in vivo.
Test [5] relates to Phytophthora infestans on potatoes (PLB). Type of test: in vivo. The note with it: Table 5b.
For test [6], the system named is Tomato Late Blight. It is filed as in vivo, Phytophthora infestans. The following applies: Table 6a.
The test system of test [7] is grape downy mildew, Plasmopara viticola. The test can be described thus: Grape downy mildew control on Delaware grapes (Example 6b). The note with it: Table 6b. It is filed as in vivo. On the procedure: Tissue culture produced from Delaware grapes were sprayed with the fungicides. Inoculation with grape downy mildew (GDM) spores having a concentration of 40,000 spores ml was conducted 1 day after the application. Plants were placed in a mist chamber for 24 hrs and then moved to a control temperature chamber for the remainder of the test period. Table 6b -

In the next test the test system is Phytophthora capsici. The test can be described thus: Phytophthora capsici colony growth inhibition on potato dextrose agar (Examples 1 and 2). It is filed as cell-based, Phytophthora capsici (ATCC 15399).

Regarding `CCO[PH](=O)O` [Cmpd. E, Fosetyl-aluminum, reference compound], the “TLB obs. % Control” value in test [1] (0.112 kg ai/ha) came out at 30.9%; in test [1] (0.225 kg ai/ha) it was 14.3%; in test [1] (0.45 kg ai/ha), 57.1%; in test [1] (0.9 kg ai/ha), 54.8%.

`CCCOC(=O)NCCCN(C)C` [Cmpd. F, Propamocarb, reference compound]: the “% Control Observed” value in the test with Cucumber Downy Mildew [2] (0.063 Kg ai/ha) is listed as 9%; in the test with Cucumber Downy Mildew [2] (0.125 Kg ai/ha), 0%; in the test on Cucumber Downy Mildew [2] (0.25 Kg ai/ha), 27%; in the test on Tomato Late Blight [3] (0.063 Kg ai/ha) it was 0%; with Tomato Late Blight [3] (0.125 Kg ai/ha), 3%; in the test with Tomato Late Blight [3] (0.25 Kg ai/ha), 17%.

With `O=C1c2ccccc2C(=O)N1SC(Cl)(Cl)Cl` [Cmpd. G, Folpet, reference compound], in the test on Cucumber Downy Mildew [4], the “Number of Infection Sites” value is 16 and 22.2 and 19.2. The “% Control Observed” value in test [5] (0.225 Kg ai/ha) is given as 0%; in test [5] (0.45 Kg ai/ha) it was 3.5%.

Regarding `O=[N+]([O-])c1cc(C(F)(F)F)c(Cl)c([N+](=O)[O-])c1Nc1ncc(C(F)(F)F)cc1Cl` [Cmpd. H, Fluazinam, reference compound], the “% Control Observed” value with Tomato Late Blight [6] (0.125 Kg ai/ha) was determined as 20%; in test [7] (Cmpd. H 0.006 Kg ai/ha), 52%. The “% Infection” value in the test with Tomato Late Blight [6] (0.125 Kg ai/ha) was found to be 64%.

In the case of `CCC(C)(NC(=O)c1cc(Cl)c(C)c(Cl)c1)C(=O)CCl` (stereo not shown) [Compound A, N-[3'-(1'-chloro-3'-methyl-2'-oxopentan)]-3,5-dichloro-4-methylbenzamide], the “% Inhibition (Observed)” value in the test on Phytophthora capsici (Table 1, Compound A 0.2 ppm, Compound C 0 ppm) came to 34.1%; in the test with Phytophthora capsici (Table 1, Compound A 0.3 ppm, Compound C 0 ppm) it was 52.8%; with Phytophthora capsici (Table 2, Compound A 0.1 ppm, Compound D 0 ppm), 21.6%; with Phytophthora capsici (Table 2, Compound A 0.2 ppm, Compound D 0 ppm) it was 31.0%; in the test with Phytophthora capsici (Table 2, Compound A 0.3 ppm, Compound D 0 ppm), 44.0%. Also, the “% Control Observed” value in the test on Tomato Late Blight [6] (0.025 Kg ai/ha) was found to be 84%; with Cucumber Downy Mildew [2] (0.006 Kg ai/ha) it was 56%; in the test on Cucumber Downy Mildew [2] (0.012 Kg ai/ha), 33%; with Cucumber Downy Mildew [2] (0.025 Kg ai/ha) it was 45%; in test [7] (Cmpd. A 0.006 Kg ai/ha) it was 22%; in the test with Tomato Late Blight [3] (0.006 Kg ai/ha) it was 23%. Also, the “% Control Observed” value in the test with Tomato Late Blight [3] (0.012 Kg ai/ha) was 20%; in the test with Tomato Late Blight [3] (0.025 Kg ai/ha), 36%; with Cucumber Downy Mildew [4] it was 74.3% and 84.8% and 98.1%; in test [5] (0.05 Kg ai/ha), 12%; in test [5] (0.10 Kg ai/ha), 16%. Also, the “% Infection” value with Tomato Late Blight [6] (0.025 Kg ai/ha) amounted to 13.2%. Besides, the “control of tomato late blight” value in test [1] (Example 3a, alone at all rates tested) is listed as not below 95%. Besides, the “TLB obs. % Control” value in test [1] (0.0125 kg ai/ha) was 97.1%; in test [1] (0.025 kg ai/ha), 96.7%; in test [1] (0.05 kg ai/ha), 96.7%; in test [1] (0.1 kg ai/ha), 97.1%.

For the compound `OP(O)O` [Compound C, Phosphorous Acid, reference compound], the “% Inhibition (Observed)” value with Phytophthora capsici (Table 1, Compound C 70 ppm, Compound A 0 ppm) is given as 48.3%; in the test with Phytophthora capsici (Table 1, Compound C 100 ppm, Compound A 0 ppm) it was 72.1%.

As to `O.O.O.O.O.O=S(=O)([O-])[O-].[Cu+2]` [Compound D, CuSO4·5H2O, reference compound], the “% Inhibition (Observed)” value was 15.6% in the test on Phytophthora capsici (Table 2, Compound D 100 ppm, Compound A 0 ppm); 47.0% in the test with Phytophthora capsici (Table 2, Compound D 200 ppm, Compound A 0 ppm); 59.2% in the test on Phytophthora capsici (Table 2, Compound D 300 ppm, Compound A 0 ppm).
